Reference: US7067619B2, “Integrin-binding peptides” (La Jolla Cancer Research Foundation, priority 1993, dated 2006)
Bridge positions count the residues as written; N and C are the ends. Ends that are not written are not given here.

Tests used:
[1] = system: α5β1 integrin; assay: Cell attachment to immobilized […] peptide (B2/α27 vs B2/Cl cells); format: cell-based, human
Text: (§1) Cell lines expressing fibronectin-binding integrins were used to determine peptide activities against these integrins in the cell attachment assay described by Ruoslahti et al., Meth. Enzymol., 144:803–831 (1982), which is incorporated herein by reference. Human plasma fibronectin was iodinated as described by Morla and Ruoslahti, J. Cell Biol., 118:421–429 (1992), which is incorporated herein by reference. Vitronectin was obtained from Telios Pharmaceuticals (San Diego, Calif.). […] Peptide was coated on plastic by incubating at 37° C. for 2 hours in phosphate buffered saline containing 0.25% glutaraldehyde to crosslink the peptide. Free binding sites on the plastic were blocked using BSA. Approximately 1×10^5 cells per well were allowed to attach for 1 hour in the presence or absence of competing peptides. Bound cells were quantitated by staining with 0.1% amido black.
In addition to the inhibition of cell attachment to natural ligands, attachment and inhibition assays were performed using the […] [SEQ ID NO:6] peptide as substrate. The microliter well were coated with […] [SEQ ID NO:6] using glutaraldehyde as described above. Briefly, peptide was coated on plastic by incubating at 37° C. for 2 hours in phosphate buffered saline containing 0.25% glutaraldehyde to crosslink the peptide and free binding sites on the plastic were blocked using BSA. The wells were then saturated with BSA followed by the addition of 50,000 B2/α27 or B2/Cl cells in the presence or absence of the indicated inhibitor. […] Bound cells were quantitated by staining with 0.1% amido black.

[2] = system: αvβ1 integrin; assay: Attachment of αvβ1-expressing B2/v7 cells to immobilized […] peptide; format: cell-based
Text: as §1
In addition to the inhibition of cell attachment to natural ligands, attachment and inhibition assays were performed using the […] [SEQ ID NO:6] peptide as substrate. The microliter well were coated with […] [SEQ ID NO:6] using glutaraldehyde as described above. […] Bound cells were quantitated by staining with 0.1% amido black.

[3] = target: αvβ3 integrin (Homo sapiens, UniProt P05106+P06756); assay: Panning and binding of peptide-displaying phage on αvβ3 integrin; design: The αvβ3, αvβ5 and α5β1 integrins were isolated from human placental extracts; from tissue; host or cells: human placenta; settings: phage-displayed sequence
Sequence of αvβ3 integrin (P06756 31-889 limits assumed): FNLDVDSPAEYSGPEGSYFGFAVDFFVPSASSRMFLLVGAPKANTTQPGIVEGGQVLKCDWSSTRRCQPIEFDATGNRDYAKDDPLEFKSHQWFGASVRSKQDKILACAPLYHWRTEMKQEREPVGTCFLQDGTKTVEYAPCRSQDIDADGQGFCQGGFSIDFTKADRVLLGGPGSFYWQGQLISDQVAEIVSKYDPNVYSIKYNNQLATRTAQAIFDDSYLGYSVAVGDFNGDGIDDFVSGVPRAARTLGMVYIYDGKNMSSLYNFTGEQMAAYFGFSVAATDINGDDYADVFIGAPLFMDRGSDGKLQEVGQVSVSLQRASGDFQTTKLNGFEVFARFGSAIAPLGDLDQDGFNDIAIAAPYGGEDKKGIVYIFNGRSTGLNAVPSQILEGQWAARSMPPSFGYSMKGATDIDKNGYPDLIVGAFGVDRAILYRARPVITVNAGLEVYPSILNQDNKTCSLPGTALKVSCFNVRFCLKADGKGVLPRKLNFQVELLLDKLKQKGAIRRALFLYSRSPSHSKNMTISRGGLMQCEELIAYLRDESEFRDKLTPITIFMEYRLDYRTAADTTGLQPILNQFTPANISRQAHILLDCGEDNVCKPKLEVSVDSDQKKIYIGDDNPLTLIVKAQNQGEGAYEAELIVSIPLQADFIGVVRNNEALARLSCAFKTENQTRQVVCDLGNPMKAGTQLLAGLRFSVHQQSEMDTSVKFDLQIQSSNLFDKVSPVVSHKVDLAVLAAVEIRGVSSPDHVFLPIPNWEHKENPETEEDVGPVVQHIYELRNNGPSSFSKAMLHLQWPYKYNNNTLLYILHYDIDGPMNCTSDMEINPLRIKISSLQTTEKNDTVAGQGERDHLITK
Sequence of αvβ3 integrin (P06756 891-1048 partner limits assumed): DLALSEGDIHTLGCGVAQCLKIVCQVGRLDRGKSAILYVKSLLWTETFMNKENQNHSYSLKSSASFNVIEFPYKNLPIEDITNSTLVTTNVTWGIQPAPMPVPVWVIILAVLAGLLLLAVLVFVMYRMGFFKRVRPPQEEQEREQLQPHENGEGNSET
Sequence of αvβ3 integrin (P05106 27-788): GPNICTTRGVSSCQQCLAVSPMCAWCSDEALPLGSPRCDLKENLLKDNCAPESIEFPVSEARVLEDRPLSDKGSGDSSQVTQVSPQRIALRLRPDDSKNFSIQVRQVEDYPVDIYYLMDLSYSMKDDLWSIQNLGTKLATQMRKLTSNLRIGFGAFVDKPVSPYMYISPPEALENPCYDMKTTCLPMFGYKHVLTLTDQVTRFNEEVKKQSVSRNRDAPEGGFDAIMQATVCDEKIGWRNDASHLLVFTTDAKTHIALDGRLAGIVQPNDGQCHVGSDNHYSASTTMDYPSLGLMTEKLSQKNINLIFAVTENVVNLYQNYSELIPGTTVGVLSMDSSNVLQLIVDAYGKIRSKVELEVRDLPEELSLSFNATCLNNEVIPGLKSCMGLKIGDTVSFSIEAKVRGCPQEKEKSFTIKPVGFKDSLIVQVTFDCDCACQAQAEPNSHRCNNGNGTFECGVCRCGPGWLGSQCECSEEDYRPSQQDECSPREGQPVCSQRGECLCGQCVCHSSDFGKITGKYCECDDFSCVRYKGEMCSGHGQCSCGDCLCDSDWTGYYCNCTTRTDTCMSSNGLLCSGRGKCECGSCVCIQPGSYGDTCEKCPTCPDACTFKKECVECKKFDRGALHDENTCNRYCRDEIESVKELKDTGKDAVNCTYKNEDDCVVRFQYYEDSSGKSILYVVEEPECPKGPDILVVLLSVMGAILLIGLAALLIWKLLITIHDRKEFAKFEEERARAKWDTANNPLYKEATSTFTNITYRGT
Text: In addition, most of the phage-binding activity in the αvβ3 preparation was captured into microliter wells coated with antibodies against the αv or β3 subunits as described previously (Koivunen et al., J. Biol. Chem., 268:20205–10 (1993). The αIIbβ3 integrin was isolated from outdated platelets (Pytela et al., Science, 231:1559–1562 (1986)).
Peptide libraries were constructed in fuse 5 vector (Scott and Smith, Science 249:386–390 (1990)) as described previously (Koivunen et al., J. Cell Biol., 124:373–380 (1994). The CX5C, CX6C, CX7C and CX9 [SEQ ID NOs:39–42, respectively] libraries were prepared using synthetic oligonucleotides containing core sequences TGT(NNK)5TGT, TGT(NNK)6TGT, TGT(NNK)7TGT and TGT(NNK)9 [SEQ ID NOS:43–46, respectively] (N=equal molar mixture of A, C, G, T; K=G or T), respectively. The oligonucleotides were made double-stranded by PCR amplification with 5 cycles, purified and ligated to the N-terminus of pIII gene of fuse 5 vector. […]
Binding of individual cloned phage to integrins was studied in microliter wells as described in Koivunen et al., J. Cell. […] Phage that were bound were determined by their ability to infect F-pilus positive K91kan bacteria. Bacteria were grown overnight in microliter wells in the presence of tetracycline and the absorbance indicative of bacterial growth was read at 600 nm with an ELISA plate reader.

Sequence of α5β1 integrin (P08648 42-894 limits assumed): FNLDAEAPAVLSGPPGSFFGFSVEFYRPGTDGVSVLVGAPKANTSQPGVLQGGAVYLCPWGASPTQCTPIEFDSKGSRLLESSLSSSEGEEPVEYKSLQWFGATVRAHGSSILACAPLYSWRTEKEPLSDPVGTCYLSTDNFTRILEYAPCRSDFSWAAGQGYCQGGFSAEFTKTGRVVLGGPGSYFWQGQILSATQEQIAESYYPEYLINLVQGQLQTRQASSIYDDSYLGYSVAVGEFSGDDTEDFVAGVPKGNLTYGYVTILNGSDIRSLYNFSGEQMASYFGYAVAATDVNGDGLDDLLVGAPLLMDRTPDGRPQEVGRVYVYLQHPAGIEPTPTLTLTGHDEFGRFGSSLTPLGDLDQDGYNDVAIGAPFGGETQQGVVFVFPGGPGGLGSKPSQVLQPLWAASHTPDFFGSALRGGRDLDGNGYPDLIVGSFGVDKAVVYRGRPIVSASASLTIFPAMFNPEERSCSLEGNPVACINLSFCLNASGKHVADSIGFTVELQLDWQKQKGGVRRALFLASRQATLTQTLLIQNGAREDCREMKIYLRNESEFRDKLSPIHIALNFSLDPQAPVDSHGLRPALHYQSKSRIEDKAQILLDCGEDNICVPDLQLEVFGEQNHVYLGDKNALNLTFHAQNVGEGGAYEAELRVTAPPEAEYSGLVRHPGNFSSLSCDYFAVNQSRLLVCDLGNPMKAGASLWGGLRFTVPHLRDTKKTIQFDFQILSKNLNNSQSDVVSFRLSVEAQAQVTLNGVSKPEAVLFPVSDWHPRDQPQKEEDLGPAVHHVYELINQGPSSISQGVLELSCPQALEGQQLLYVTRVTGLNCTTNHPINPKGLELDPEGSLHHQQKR
Sequence of α5β1 integrin (P08648 895-1049 limits assumed): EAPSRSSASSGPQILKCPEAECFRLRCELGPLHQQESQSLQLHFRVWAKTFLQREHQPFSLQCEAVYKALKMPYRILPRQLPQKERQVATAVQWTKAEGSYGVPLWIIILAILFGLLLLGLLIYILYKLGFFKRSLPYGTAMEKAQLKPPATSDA

Substance | promotion of cell adhesion by immobilized peptide ([1]; B2/α27 compared with B2/Cl cells, FIG. 8) | attachment of cell lines lacking these integrins or expressing non-human α5β1 to immobilized peptide ([1]; immobilized peptide) | inhibition of B2/α27 attachment to immobilized RRETAWA-containing peptide ([1]; inhibitor at 1 mM, FIG. 8) | peptide coating concentration required to produce significant attachment [2] [mg/mL] | binding of peptide-displaying phage to the αvβ3 integrin [3]
GACRRETAWACGA | promoted α5β1-mediated adhesion | did not attach | inhibited | 1 | –
A*CPSRLDSPC*G (ACPSRLDSPCG; disulfide 2-10 (inferred)) | – | – | – | – | bound to αvβ3
